Measurements from paper PMC9088669 (Journal of Medical Virology, 2022).
Where two headings read alike, the source gives them in different places.

Tests used:
SARS‐CoV‐2 [1] = settings: previously found; cited from earlier work
SARS‐CoV‐2/FFM1 [2] = test: microbe, parasite or virus in culture; settings: Severe acute respiratory syndrome coronavirus 2, Caco-2, 48 h, read-out: EC50 visual CPE
SARS‐CoV‐2/FFM1 [3] = test system: SARS‐CoV‐2/FFM1
SARS‐CoV‐2 [4] = settings: read-out: EC50 reported in previous studies (range); cited from earlier work

Compound: CCN(CC)CCCC(C)Nc1ccnc2cc(Cl)ccc12 (stereo not shown) [Chloroquine]
- activity in SARS‐CoV‐2–infected Caco‐2 cells (SARS‐CoV‐2 [1]): inactive

Compound: COc1cccc2c1C(=O)c1c(O)c3c(c(O)c1C2=O)C[C@@](O)(C(=O)CO)C[C@@H]3O[C@H]1C[C@H](N)[C@H](O)[C@H](C)O1 [Doxorubicin]
- EC50 (SARS‐CoV‐2/FFM1 [2]): 12 µM

Compound: CCN(CCO)CCCC(C)Nc1ccnc2cc(Cl)ccc12 (stereo not shown) [Hydroxychloroquine]
- activity in SARS‐CoV‐2–infected Caco‐2 cells (SARS‐CoV‐2 [1]): inactive

Compound: CCC(C)n1ncn(-c2ccc(N3CCN(c4ccc(OCC5COC(Cn6cncn6)(c6ccc(Cl)cc6Cl)O5)cc4)CC3)cc2)c1=O (stereo not shown) [Itraconazole]
- EC50 (SARS‐CoV‐2/FFM1 [2]): 1.6 µM

Compound: Cc1c(O)cccc1C(=O)N[C@@H](CSc1ccccc1)[C@H](O)CN1C[C@H]2CCCC[C@H]2C[C@H]1C(=O)NC(C)(C)C [Nelfinavir]
- EC50 (SARS‐CoV‐2/FFM1 [2]): 8.1 µM

Compound: O=C(NC1CN2CCC1CC2)c1cc(Cl)cc2c1OC1CCCCC21 (stereo not shown) [RG‐12915]
- EC50 (SARS‐CoV‐2/FFM1 [3]; read-out: EC50 visual CPE): 12 µM

Compound: CCC(CC)COC(=O)[C@H](C)N[P@](=O)(OC[C@H]1O[C@@](C#N)(c2ccc3c(N)ncnn23)[C@H](O)[C@@H]1O)Oc1ccccc1 [Remdesivir]
- EC50 (SARS‐CoV‐2/FFM1 [2]): 1.3 µM
- EC50 (SARS‐CoV‐2 [4]): 0.77 to 7.28 µM

Compound: CCN(CC)CCNC(=O)c1ccc(NS(C)(=O)=O)cc1 [Sematilide]
- EC50 (SARS‐CoV‐2/FFM1 [2]): > 100 µM
- antiviral activity in Caco‐2 cells (SARS‐CoV‐2/FFM1 [3]; Caco‐2 cells, SARS‐CoV‐2/FFM1): not active
